According to ChEMBL document CHEMBL4706702 (Bioorg Med Chem, 2021):
Active and inactive are the calls of the source. The rule behind the calls is not given here.

Columns and labels:
[1] = target: T1, Mushroom tyrosinase (Agaricus bisporus) (UniProt O42713+Q00024+C7FF04+C7FF05); test: Inhibition of mushroom tyrosinase using L-DOPA as substrate at 10 uM preincubated for 20 mins followed by substrate addition and measured after 10 mins relative to control; conditions: time 30.0 min
[2] = Antioxidant activity assessed as inhibition of DPPH radical activity at 100 uM incubated for 20 mins by spectrophotometric method relative to control; format: functional
[3] = target: T1, Mushroom tyrosinase (Agaricus bisporus); test: Inhibition of mushroom tyrosinase using L-DOPA as substrate at 0.5 uM preincubated for 20 mins followed by substrate addition and measured after 10 mins relative to control; conditions: time 30.0 min
Mushroom tyrosinase [4] = target: T2, Mushroom tyrosinase (Agaricus bisporus, UniProt O42713+Q00024+C7FF04+C7FF05); test: Inhibition of mushroom tyrosinase using L-DOPA as substrate preincubated for 20 mins followed by substrate addition and measured after 10 mins
Mushroom tyrosinase [5] = target: T2, Mushroom tyrosinase; test: Inhibition of mushroom tyrosinase using L-DOPA as substrate preincubated for 10 mins followed by substrate addition and measured after 20 mins
[6] = tested on: O=c1cc(CSc2nc3ccccc3c(=O)n2Cc2ccccn2)occ1O; test: Uncompetitive inhibition of mushroom tyrosinase assessed as Km at 0.5 uM using L-DOPA as substrate preincubated for 10 mins followed by substrate addition and measured after 10 mins by Lineweaver-Burk plot analysis (reference value: […] uM); conditions: Agaricus bisporus, time 20.0 min
[7] = tested on: O=c1cc(CSc2nc3ccccc3c(=O)n2Cc2ccccn2)occ1O; test: Uncompetitive inhibition of mushroom tyrosinase assessed as Vmax at 10 uM using L-DOPA as substrate preincubated for 10 mins followed by substrate addition and measured after 10 mins by Lineweaver-Burk plot analysis (reference value: […] OD/min); conditions: Agaricus bisporus, time 20.0 min
[8] = tested on: O=c1cc(CSc2nc3ccccc3c(=O)n2Cc2ccccn2)occ1O; test: Uncompetitive inhibition of mushroom tyrosinase assessed as Vmax at 0.5 uM using L-DOPA as substrate preincubated for 10 mins followed by substrate addition and measured after 10 mins by Lineweaver-Burk plot analysis (reference value: […] OD/min); conditions: Agaricus bisporus, time 20.0 min
[9] = tested on: O=c1cc(CSc2nc3ccccc3c(=O)n2Cc2ccccn2)occ1O; test: Uncompetitive inhibition of mushroom tyrosinase assessed as Vmax at 2.5 uM using L-DOPA as substrate preincubated for 10 mins followed by substrate addition and measured after 10 mins by Lineweaver-Burk plot analysis (reference value: […] OD/min); conditions: Agaricus bisporus, time 20.0 min
[10] = tested on: O=c1cc(CSc2nc3ccccc3c(=O)n2Cc2ccccn2)occ1O; test: Uncompetitive inhibition of mushroom tyrosinase assessed as Km at 10 uM using L-DOPA as substrate preincubated for 10 mins followed by substrate addition and measured after 10 mins by Lineweaver-Burk plot analysis (reference value: […] uM); conditions: Agaricus bisporus, time 20.0 min
[11] = tested on: O=c1cc(CSc2nc3ccccc3c(=O)n2Cc2ccccn2)occ1O; test: Uncompetitive inhibition of mushroom tyrosinase assessed as Km at 2.5 uM using L-DOPA as substrate preincubated for 10 mins followed by substrate addition and measured after 10 mins by Lineweaver-Burk plot analysis (reference value: […] uM); conditions: Agaricus bisporus, time 20.0 min
[12] = target: T3, Tyrosinase (Mus musculus) (UniProt P11344); test: Inhibition of tyrosinase in mouse B16F10 cells assessed melanin level at 8 uM after 24 hrs relative to control; format: cell-based; parameters: scale not given: the % may be the effect or the level left; conditions: B16-F10
T3 sequence (whole entry): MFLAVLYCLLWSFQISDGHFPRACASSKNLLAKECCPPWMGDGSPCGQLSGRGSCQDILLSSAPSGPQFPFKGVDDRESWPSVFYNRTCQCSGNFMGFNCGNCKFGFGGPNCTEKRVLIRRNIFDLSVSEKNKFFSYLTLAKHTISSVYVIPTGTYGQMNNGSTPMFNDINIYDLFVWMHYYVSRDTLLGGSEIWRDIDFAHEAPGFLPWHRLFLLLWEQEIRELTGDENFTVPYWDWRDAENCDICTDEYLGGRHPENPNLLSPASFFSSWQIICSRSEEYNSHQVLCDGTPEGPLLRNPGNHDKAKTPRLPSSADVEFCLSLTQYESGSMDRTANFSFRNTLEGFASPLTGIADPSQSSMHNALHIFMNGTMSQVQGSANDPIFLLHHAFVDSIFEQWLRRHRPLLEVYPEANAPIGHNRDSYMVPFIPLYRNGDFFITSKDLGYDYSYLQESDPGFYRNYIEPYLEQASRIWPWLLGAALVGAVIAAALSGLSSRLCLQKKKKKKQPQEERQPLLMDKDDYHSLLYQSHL

[13] = target: T3, Tyrosinase (Mus musculus); test: Inhibition of tyrosinase in mouse B16F10 cells assessed reduction in melanin level at 2 uM after 24 hrs; format: cell-based; conditions: B16-F10
B16-F10 [14] = test: Cytotoxicity against mouse B16F10 cells assessed as reduction in cell viability at 2 to 4 uM after 48 hrs by MTT assay; format: cell-based; conditions: b16-f10, 48 h, dose 2-4 µM
B16-F10 [15] = test: Cytotoxicity against mouse B16F10 cells assessed as reduction in cell viability at 8 uM after 48 hrs by MTT assay; format: cell-based; conditions: b16-f10, 48 h
[16] = target: T1, Mushroom tyrosinase (Agaricus bisporus); test: Potency index, ratio of kojic acid IC50 to test compound IC50 for inhibition of mushroom tyrosinase using L-DOPA as substrate

Sequence of Mushroom tyrosinase (Agaricus bisporus) (from UniProt O42713+Q00024+C7FF04+C7FF05) (C7FF05 whole entry, looked up): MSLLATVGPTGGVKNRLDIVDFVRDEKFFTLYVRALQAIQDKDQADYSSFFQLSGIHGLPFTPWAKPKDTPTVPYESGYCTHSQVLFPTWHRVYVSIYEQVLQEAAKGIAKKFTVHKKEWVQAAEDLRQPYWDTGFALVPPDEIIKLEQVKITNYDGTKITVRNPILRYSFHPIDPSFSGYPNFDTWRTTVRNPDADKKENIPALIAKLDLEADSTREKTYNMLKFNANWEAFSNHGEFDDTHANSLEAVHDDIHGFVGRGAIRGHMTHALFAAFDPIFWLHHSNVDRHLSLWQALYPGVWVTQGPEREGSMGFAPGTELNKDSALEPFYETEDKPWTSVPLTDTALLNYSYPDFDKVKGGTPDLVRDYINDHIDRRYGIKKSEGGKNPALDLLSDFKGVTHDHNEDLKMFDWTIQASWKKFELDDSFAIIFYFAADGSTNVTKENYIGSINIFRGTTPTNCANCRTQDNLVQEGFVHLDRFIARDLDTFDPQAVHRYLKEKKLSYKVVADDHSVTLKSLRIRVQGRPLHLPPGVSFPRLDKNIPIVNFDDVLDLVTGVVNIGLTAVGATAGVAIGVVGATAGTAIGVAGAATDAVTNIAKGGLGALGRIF
Sequence of Mushroom tyrosinase (Agaricus bisporus) (from UniProt O42713+Q00024+C7FF04+C7FF05) (C7FF04 whole entry, looked up): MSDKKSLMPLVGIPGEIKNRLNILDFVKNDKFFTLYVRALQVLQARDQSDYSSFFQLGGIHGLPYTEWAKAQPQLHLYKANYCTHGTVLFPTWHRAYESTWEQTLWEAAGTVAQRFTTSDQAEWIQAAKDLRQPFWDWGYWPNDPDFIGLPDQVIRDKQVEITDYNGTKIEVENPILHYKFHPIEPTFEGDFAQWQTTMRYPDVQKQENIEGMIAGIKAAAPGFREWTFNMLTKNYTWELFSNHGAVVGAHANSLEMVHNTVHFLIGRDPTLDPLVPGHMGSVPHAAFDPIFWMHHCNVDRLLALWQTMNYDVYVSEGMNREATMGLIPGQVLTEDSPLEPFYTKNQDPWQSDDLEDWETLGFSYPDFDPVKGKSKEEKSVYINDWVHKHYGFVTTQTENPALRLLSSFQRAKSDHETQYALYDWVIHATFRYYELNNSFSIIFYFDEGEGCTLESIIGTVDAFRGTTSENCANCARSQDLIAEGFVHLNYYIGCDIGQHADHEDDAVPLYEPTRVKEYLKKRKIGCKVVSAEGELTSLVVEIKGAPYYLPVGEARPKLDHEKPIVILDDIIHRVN
Sequence of Mushroom tyrosinase (Agaricus bisporus) (from UniProt O42713+Q00024+C7FF04+C7FF05) (Q00024 whole entry, looked up): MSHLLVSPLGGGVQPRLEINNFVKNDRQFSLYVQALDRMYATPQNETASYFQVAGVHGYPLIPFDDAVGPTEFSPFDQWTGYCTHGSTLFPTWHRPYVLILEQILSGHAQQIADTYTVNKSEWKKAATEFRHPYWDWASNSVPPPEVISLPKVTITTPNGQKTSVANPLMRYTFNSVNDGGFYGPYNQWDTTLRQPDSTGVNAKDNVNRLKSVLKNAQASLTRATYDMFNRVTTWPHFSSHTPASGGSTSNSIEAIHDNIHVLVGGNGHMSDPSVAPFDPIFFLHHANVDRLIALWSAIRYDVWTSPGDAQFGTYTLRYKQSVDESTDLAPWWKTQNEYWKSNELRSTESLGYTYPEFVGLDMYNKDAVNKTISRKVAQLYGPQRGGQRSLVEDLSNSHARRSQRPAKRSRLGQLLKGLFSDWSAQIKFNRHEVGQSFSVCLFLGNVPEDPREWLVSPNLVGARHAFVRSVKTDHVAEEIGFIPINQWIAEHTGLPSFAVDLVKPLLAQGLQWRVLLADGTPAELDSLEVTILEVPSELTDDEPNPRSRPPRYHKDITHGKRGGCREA
Sequence of Mushroom tyrosinase (Agaricus bisporus) (from UniProt O42713+Q00024+C7FF04+C7FF05) (O42713 whole entry, looked up): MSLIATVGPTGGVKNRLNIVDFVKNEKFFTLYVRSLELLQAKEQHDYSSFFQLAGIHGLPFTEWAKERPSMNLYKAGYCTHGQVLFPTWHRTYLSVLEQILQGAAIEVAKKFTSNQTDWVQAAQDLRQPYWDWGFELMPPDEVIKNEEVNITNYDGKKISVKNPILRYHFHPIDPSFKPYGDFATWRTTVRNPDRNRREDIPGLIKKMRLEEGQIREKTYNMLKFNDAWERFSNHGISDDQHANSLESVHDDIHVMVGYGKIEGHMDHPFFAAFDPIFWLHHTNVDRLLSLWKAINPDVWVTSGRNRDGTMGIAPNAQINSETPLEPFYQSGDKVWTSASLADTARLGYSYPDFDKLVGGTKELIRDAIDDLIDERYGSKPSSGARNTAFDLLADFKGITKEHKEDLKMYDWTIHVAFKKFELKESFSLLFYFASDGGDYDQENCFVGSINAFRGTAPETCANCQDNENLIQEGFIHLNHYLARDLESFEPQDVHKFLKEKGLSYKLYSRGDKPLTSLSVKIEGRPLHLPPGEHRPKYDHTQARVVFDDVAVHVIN

Row | Molecule | inhibition [1] | inhibition [2] | inhibition [3] | IC50 (Mushroom tyrosinase [4]) | other results
1 | O=c1cc(CSc2nc3ccccc3c(=O)n2Cc2ccccc2)occ1O | 94.1% | 27.9% | 42.5% | 1420 nM | –
2 | O=c1cc(CSc2nc3ccccc3c(=O)n2-c2ccccc2)occ1O | 91.7% | 31.4% | 43% | 1880 nM | –
3 | O=c1cc(CSc2nc3ccccc3c(=O)n2-c2ccc(Br)cc2)occ1O | 71.7% | 33.3% | 40.1% | 1480 nM | –
4 | O=c1c(O)c(-c2ccc(O)c(O)c2)oc2cc(O)cc(O)c12 | – | 4.62% | – | – | –
5 | COc1cccc(C(=O)NN2C(=O)c3ccccc3NC2c2ccc(F)cc2)c1 (configuration not stated) | – | – | – | – | IC50 (Mushroom tyrosinase [5]): 6 nM
6 | COc1ccc(-n2c(SCc3cc(=O)c(O)co3)nc3ccccc3c2=O)cc1OC | 98.8% | 24.5% | 40.1% | 2120 nM | –
7 | O=C(Nn1c(-c2ccccc2O)nc2ccccc2c1=O)c1ccco1 | – | – | – | – | IC50 (Mushroom tyrosinase [5]): 499 nM
8 | CCCn1c(SCc2cc(=O)c(O)co2)nc2ccccc2c1=O | 90.5% | 22.6% | 24.5% | 2310 nM | –
9 | Mushroom tyrosinase (Agaricus bisporus) (from UniProt O42713+Q00024+C7FF04+C7FF05) | – | – | – | – | Km [6]: 1.68 µM; Vmax (optical density/minute) [7]: 0.081; Vmax (optical density/minute) [8]: 0.27; Vmax (optical density/minute) [9]: 0.15; Km [10]: 0.92 µM; Km [11]: 1.15 µM
10 | CC(C)n1c(SCc2cc(=O)c(O)co2)nc2ccccc2c1=O | 91.2% | 32.6% | 38.6% | 1440 nM | –
11 | COc1ccc(-n2c(SCc3cc(=O)c(O)co3)nc3ccccc3c2=O)cc1 | 83.5% | 27.1% | 22.1% | 2400 nM | –
12 | C=CCn1c(SCc2cc(=O)c(O)co2)nc2ccccc2c1=O | 92% | – | 32.4% | 1560 nM | –
13 | O=c1cc(CSc2nc3ccccc3c(=O)n2-c2ccccn2)occ1O | 90.9% | 33.8% | 50.5% | 500 nM | Activity [12]: 69%; inhibition [13]: Active; Activity (B16-F10 [14]): Non-Toxic; Activity (B16-F10 [15]): Toxic
14 | Cc1ccc(-n2c(SCc3cc(=O)c(O)co3)nc3ccccc3c2=O)cc1 | 77.3% | 33.3% | 11.4% | 5320 nM | –
15 | O=c1cc(CSc2nc3ccccc3c(=O)n2-c2ccc(Cl)cc2)occ1O | 94.2% | 32.6% | 49.5% | 500 nM | –
16 | O=c1cc(CSc2nc3ccccc3c(=O)n2Cc2ccc(F)cc2)occ1O | 92% | 32.6% | 32.4% | 1560 nM | –
17 | O=c1cc(CSc2nc3ccccc3c(=O)n2Cc2ccccn2)occ1O | 90.3% | 42.6% | 54.5% | 460 nM | Activity [12]: 75%; inhibition [13]: Active; Activity (B16-F10 [14]): Non-Toxic; Activity (B16-F10 [15]): Toxic
18 | O=c1cc(CSc2nc3ccccc3c(=O)n2Cc2ccncc2)occ1O | 88.5% | 39% | 15.9% | 2200 nM | –
19 | O=c1cc(CSc2nc3ccccc3c(=O)n2C2CC2)occ1O | 82.5% | 24.5% | 23.6% | 2100 nM | Ratio IC50 [16]: 4
